What all share (assay type): cell-based
The target in one experiment is T1, Human Cav2.2 channels (Homo sapiens, UniProt Q00975).
T1 construct: expressed in transfected cells
The experiment is described as follows: Block of Cav2.2 (N-type) channels expressed in HEK293 cells. The settings on record: for inhibition at 10 µM / inhibition at 30 µM: HEK293; for inhibition at 10 µM: read-out: Cav 2.2 % Inh @ 10 μM; for inhibition at 30 µM: read-out: Cav 2.2 % Inh @ 30 μM; for pIC50: read-out: Cav 2.2 IC50. The text has this: Human Cav2.2 channels were stably expressed in HEK293 cells along with alpha2-delta and beta subunits of voltage-gated calcium channels. An inwardly rectifying potassium channel (Kir2.3) was also expressed in these cells to allow more precise control of the cell membrane potential by extracellular potassium concentration. At low bath potassium concentration, the membrane potential is relatively negative, and is depolarized as the bath potassium concentration is raised. In this way, the bath potassium concentration can be used to regulate the voltage-dependent conformations of the channels. Compounds are incubated with cells in the presence of low (4 mM) potassium or elevated (12, 25 or 30 mM) potassium to determine the affinity for compound block of resting (closed) channels at 4 mM potassium or affinity for block of open and inactivated channels at 12, 25 or 30 mM potassium. After the incubation period, Cav2.2 channel opening is triggered by addition of higher concentration of potassium (70 mM final concentration) to further depolarize the cell. The degree of state-dependent block can be estimated from the inhibitory potency of compounds after incubation in different potassium concentrations.
Calcium influx through Cav2.2 channels is determined using a calcium sensitive fluorescent dye in combination with a fluorescent plate reader. Fluorescent changes were measured with either a VIPR (Aurora Instruments) or FLIPR (Molecular Devices) plate reader.
Protocol • 1. Seed cells in Poly-D-Lysine Coated 96 or 384-well plate and keep in a 37° C.-10% CO2 incubator overnight • 2. Remove media, wash cells with 0.2 mL (96-well plate) or 0.05 mL (384-well plate) Dulbecco's Phosphate Buffered Saline (D-PBS) with calcium & magnesium (Invitrogen; 14040) • 3. Add 0.1 mL (96-well plate) or 0.05 mL (384-well plate) of 4 μM fluor-4 (Molecular Probes; F-14202) and 0.02% Pluronic acid (Molecular Probes; P-3000) prepared in D-PBS with calcium & magnesium (Invitrogen; 14040) supplemented with 10 mM Glucose & 10 mM Hepes/NaOH; pH 7.4 • 4. Incubate in the dark at 25° C. for 60-70 min • 5. Remove dye, wash cells with 0.1 mL (96-well plate) or 0.06 mL (384-well plate) of 4, 12, 25, or 30 mM Potassium Pre-polarization Buffer (PPB) • 6. Add 0.1 mL (96-well plate) or 0.03 mL (384-well plate) of 4, 12, 25, 30 mM PPB with or without test compound • 7. Incubate in the dark at 25° C. for 30 min • 8. Read cell plate on VIPR instrument, Excitation=480 nm, Emission=535 nm • 9. With VIPR continuously reading, add 0.1 mL (96-well plate) or 0.03 mL (384-well plate) of Depolarization Buffer (DB), which is 2× the final assay concentration, to the cell plate.
Block of N-type calcium channels is evaluated utilizing the IonWorks HT 384 well automated patch clamp electrophysiology device. This instrument allows synchronous recording from 384 well (48 at a time). A single whole cell recording is made in each well. Whole cell recording is established by perfusion of the internal compartment with amphotericin B.
The voltage protocol is designed to detect use-dependent block. A 2 Hz train of depolarizations (twenty 25 ms steps to +20 mV). The experimental sequence consists of a control train (pre-compound), incubation of cells with compound for 5 minutes, followed by a second train (post-compound). Use dependent block by compounds is estimated by comparing fractional block of the first pulse in the train to block of the 20th pulse.
Parallel patch clamp electrophysiology is performed using IonWorks HT (Molecular Devices Corp) essentially as described by Kiss and colleagues (Kiss et al. 2003; Assay and Drug Development Technologies, 1:127-135). Briefly, a stable HEK 293 cell line (referred to as CBK) expressing the N-type calcium channel subunits (α1B, α2δ, β3a) and an inwardly rectifying potassium channel (Kir2.3) is used to record barium current through the N-type calcium channel. Cells are grown in T75 culture plates to 60-90% confluence before use. […]

The target of experiment [1] is T2, Cav3.2 (T-type channel alpha-1H) (Homo sapiens, UniProt O95180).
T2 construct: expressed in transfected cells; host or cells: HEK 293
The experiment is described as follows: T-type calcium channel voltage-clamp assay, Cav3.2. The settings on record: read-out: Cav 3.2 IC50. On the procedure: (§1) The T-type calcium channel blocking activity of the compounds of this invention may be readily determined using the methodology well known in the art described by Xia, et al., Assay and Drug Development Tech., 1 (5), 637-645 (2003).
(§2) In a typical experiment ion channel function from HEK 293 cells expressing the T-type channel alpha-1G, H, or I (CaV 3.1, 3.2, 3.3) is recorded to determine the activity of compounds in blocking the calcium current mediated by the T-type channel alpha-1G, H, or I (CaV 3.1, 3.2, 3.3). In this T-type calcium (Ca^2+) antagonist voltage-clamp assay calcium currents are elicited from the resting state of the human alpha-1G, H, or I (CaV 3.1, 3.2, 3.3) calcium channel as follows. Sequence information for T-type (Low-voltage activated) calcium channels are fully disclosed in e.g., U.S. Pat. No. 5,618,720, U.S. Pat. No. 5,686,241, U.S. Pat. No. 5,710,250,U.S. Pat. No. 5,726,035, U.S. Pat. No. 5,792,846, U.S. Pat. No. 5,846,757, U.S. Pat. No. 5,851,824, U.S. Pat. No. 5,874,236, U.S. Pat. No. 5,876,958, U.S. Pat. No. 6,013,474, U.S. Pat. No. 6,057,114, U.S. Pat. No. 6,096,514, WO 99/28342, and J. Neuroscience, 19 (6):1912-1921 (1999). Cells expressing the t-type channels were grown in H3D5 growth media which is comprised DMEM, 6% bovine calf serum (HYCLONE), 30 micromolar Verapamil, 200 microgram/ml Hygromycin B, 1× Penicillin/Streptomycin. Glass pipettes are pulled to a tip diameter of 1-2 micrometer on a pipette puller. The pipettes are filled with the intracellular solution and a chloridized silver wire is inserted along its length, which is then connected to the headstage of the voltage-clamp amplifier. Trypsinization buffer was 0.05% Trypsin, 0.53 mM EDTA. The extracellular recording solution consists of (mM): 130 mM NaCl, 4 mM KCl, 1 mM MgCl2, 2 mM CaCl2, 10 mM HEPES, 30 Glucose, pH 7.4. The internal solution consists of (mM): 135 mM CsMeSO4, 1 MgCl2, 10 CsCl, 5 EGTA, 10 HEPES, pH 7.4, or 135 mM CsCl, 2 MgCl2, 3 MgATP, 2 Na2ATP, 1 Na2GTP, 5 EGTA, 10 HEPES, pH 7.4. Upon insertion of the pipette tip into the bath, the series resistance is noted (acceptable range is between 1-4 megaohm). The junction potential between the pipette and bath solutions is zeroed on the amplifier. The cell is then patched, the patch broken, and, after compensation for series resistance (>=80%), the voltage protocol is applied while recording the whole cell Ca2+ current response. Voltage protocols: (1) −80 mV holding potential every 20 seconds pulse to −20 mV for 40 msec duration; the effectiveness of the drug in inhibiting the current mediated by the channel is measured directly from measuring the reduction in peak current amplitude initiated by the voltage shift from −80 mV to −20 mV; (2). −100 mV holding potential every 15 seconds pulse to −20 mV for 40 msec duration; the effectiveness of the drug in inhibiting the current mediated by the channel is measured directly from measuring the reduction in peak current amplitude initiated by the shift in potential from −100 mV to […]. The difference in block at the two holding potentials was used to determine the effect of drug at differing levels of inactivation induced by the level of resting state potential of the cells. After obtaining control baseline calcium currents, extracellular solutions containing increasing concentrations of a test compound are washed on. Once steady state inhibition at a given compound concentration is reached, a higher concentration of compound is applied. % inhibition of the peak inward control Ca2+ current during the depolarizing step to −20 mV is plotted as a function of compound concentration.

Experiment [2] addresses T3, Cav3.1 (T-type channel alpha-1G) (Homo sapiens, UniProt O43497).
T3 construct: expressed in transfected cells; host or cells: HEK 293
The experiment is described as follows: T-type calcium channel voltage-clamp assay, Cav3.1. The settings on record: read-out: Cav 3.1 IC50. How it is done: as §1, §2

pIC50: −log10 of the molar value.

T2 sequence (O95180 whole entry): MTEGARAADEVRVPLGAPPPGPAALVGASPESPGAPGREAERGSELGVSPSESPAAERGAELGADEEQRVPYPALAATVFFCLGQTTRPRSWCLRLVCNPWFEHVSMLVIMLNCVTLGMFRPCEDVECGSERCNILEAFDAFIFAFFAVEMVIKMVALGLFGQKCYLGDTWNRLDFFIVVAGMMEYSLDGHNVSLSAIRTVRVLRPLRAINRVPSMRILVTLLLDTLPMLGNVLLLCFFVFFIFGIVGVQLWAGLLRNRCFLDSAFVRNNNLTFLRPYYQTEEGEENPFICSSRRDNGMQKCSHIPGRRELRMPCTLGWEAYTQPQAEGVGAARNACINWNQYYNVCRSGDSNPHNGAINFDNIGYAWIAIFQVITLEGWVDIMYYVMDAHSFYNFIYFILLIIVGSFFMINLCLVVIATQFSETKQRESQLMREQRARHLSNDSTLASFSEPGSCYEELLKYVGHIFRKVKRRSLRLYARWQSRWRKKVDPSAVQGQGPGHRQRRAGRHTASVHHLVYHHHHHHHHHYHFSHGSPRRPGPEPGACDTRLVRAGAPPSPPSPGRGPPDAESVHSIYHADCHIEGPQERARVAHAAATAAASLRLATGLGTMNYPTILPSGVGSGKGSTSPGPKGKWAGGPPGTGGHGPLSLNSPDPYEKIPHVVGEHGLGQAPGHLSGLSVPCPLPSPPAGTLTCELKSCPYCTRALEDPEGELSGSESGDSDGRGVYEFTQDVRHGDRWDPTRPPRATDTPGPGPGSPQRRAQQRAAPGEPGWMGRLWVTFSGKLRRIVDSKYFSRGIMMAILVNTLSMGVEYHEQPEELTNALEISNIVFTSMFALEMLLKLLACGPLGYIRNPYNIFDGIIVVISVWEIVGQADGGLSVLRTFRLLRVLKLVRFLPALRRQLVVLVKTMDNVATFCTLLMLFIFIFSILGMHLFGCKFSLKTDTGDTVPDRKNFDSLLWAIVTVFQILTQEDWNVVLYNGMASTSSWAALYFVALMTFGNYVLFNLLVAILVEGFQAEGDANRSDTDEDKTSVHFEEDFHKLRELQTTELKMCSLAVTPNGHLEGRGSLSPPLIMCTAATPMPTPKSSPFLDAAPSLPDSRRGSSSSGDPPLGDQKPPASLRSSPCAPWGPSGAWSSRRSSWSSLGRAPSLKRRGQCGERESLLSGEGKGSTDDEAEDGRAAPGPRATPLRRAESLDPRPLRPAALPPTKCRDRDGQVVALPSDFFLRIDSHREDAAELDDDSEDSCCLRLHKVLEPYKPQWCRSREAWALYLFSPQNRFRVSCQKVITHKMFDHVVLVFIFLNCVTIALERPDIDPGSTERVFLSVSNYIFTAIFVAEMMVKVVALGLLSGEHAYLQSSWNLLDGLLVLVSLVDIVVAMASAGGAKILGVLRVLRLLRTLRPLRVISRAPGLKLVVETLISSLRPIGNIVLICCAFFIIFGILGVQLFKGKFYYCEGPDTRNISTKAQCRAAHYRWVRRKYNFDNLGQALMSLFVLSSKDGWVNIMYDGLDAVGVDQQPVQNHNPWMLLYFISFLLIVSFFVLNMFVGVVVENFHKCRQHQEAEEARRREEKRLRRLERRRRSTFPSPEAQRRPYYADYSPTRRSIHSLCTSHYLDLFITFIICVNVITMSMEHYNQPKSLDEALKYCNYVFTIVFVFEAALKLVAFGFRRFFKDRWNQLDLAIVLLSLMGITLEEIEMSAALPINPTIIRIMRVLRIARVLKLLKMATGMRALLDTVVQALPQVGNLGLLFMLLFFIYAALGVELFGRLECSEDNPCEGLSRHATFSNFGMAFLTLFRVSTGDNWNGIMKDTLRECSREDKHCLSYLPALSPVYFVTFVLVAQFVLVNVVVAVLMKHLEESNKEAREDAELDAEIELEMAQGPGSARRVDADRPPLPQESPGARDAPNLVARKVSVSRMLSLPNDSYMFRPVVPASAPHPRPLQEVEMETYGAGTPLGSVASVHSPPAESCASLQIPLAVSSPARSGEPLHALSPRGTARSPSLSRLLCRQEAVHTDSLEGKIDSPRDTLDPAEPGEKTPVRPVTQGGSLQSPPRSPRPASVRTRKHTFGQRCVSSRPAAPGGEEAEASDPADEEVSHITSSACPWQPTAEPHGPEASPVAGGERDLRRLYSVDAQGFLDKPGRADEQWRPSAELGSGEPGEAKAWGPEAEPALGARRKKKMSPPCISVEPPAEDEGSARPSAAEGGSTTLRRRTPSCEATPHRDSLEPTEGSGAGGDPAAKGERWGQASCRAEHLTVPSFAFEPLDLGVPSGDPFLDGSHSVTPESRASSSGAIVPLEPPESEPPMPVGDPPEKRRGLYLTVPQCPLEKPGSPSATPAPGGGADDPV
T3 sequence (O43497 whole entry): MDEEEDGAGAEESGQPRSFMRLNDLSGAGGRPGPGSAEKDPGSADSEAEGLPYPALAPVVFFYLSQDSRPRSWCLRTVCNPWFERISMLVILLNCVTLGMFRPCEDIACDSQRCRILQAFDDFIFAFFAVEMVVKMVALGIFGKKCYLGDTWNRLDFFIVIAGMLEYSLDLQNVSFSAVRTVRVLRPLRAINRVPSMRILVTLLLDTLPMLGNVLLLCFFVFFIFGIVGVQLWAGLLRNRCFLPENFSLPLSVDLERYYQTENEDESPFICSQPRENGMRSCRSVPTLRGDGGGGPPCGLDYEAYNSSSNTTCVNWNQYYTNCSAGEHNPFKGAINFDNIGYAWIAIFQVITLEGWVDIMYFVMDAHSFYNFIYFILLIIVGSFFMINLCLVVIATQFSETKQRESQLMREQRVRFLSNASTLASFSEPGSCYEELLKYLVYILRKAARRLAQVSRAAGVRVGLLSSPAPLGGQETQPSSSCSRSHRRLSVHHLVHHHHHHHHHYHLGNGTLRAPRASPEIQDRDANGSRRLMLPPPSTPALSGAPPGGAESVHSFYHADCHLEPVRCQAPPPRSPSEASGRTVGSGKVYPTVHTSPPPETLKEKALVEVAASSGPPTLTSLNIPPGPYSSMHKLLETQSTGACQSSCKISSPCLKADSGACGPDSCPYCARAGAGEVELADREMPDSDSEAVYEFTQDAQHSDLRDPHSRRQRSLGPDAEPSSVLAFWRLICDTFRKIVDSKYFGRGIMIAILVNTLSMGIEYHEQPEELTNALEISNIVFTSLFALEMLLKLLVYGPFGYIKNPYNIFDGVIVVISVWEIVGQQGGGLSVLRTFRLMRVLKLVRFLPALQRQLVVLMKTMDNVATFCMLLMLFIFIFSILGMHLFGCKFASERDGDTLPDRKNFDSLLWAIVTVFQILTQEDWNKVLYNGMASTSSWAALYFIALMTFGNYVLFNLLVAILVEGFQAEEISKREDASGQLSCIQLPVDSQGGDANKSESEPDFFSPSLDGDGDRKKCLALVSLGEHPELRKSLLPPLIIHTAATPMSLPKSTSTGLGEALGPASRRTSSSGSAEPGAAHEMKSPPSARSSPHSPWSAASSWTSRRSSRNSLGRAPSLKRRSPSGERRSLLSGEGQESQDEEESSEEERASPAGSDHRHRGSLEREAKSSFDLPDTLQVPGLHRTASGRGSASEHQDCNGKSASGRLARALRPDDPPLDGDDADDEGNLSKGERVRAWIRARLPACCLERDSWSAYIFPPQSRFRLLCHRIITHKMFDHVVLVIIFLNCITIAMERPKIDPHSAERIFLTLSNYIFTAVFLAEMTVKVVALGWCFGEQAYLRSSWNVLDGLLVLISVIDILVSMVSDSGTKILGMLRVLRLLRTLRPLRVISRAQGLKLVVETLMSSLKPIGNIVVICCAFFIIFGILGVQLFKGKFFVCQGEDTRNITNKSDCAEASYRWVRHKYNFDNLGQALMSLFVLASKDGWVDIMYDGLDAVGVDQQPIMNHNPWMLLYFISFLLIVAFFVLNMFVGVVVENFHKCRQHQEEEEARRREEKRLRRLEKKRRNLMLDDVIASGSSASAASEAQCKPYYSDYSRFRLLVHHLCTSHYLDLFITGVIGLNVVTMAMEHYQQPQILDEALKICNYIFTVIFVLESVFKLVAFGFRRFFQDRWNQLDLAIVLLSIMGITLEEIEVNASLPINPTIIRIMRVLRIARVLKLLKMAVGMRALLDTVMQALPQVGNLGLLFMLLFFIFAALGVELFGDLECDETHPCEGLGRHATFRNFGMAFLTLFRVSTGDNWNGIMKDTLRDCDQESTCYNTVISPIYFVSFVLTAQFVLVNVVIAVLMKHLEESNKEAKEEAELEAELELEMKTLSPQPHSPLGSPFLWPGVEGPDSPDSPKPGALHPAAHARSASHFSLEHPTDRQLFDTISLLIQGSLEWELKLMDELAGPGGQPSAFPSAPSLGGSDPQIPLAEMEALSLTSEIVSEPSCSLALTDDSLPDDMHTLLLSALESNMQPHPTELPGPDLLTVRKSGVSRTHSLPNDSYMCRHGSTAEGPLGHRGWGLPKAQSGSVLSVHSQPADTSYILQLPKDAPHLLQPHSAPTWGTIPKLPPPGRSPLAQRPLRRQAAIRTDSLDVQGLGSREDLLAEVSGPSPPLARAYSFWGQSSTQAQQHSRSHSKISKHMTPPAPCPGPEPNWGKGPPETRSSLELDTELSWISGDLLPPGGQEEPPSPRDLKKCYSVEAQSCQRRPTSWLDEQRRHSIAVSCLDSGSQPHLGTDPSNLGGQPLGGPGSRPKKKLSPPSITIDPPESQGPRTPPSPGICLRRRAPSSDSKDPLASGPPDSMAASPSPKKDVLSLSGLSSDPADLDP

The term pIC50 denotes the IC50 on a negative log10 scale, so that one unit is a factor of ten. In the case of `CC(C)(C)c1cc(N2CCN(C(=O)c3ccc(F)cc3)CC2)cc(C(C)(C)C)c1` [Compound 4, (4-(3,5-di-tert-butylphenyl)piperazin-1-yl)(4-fluorophenyl)methanone], at Human Cav2.2 channels, the inhibition at 10 µM is 92%, the inhibition at 30 µM was 97% and the negative logarithm of the IC50 (pIC50) was 5.66. Also, in experiment [1], the pIC50 is 6.10. Also, the negative logarithm of the IC50 (pIC50) in experiment [2] is 6.05.

In the case of `CC(C)(C)C(=O)Nc1ccncc1C(=O)N1CCN(c2cc(C(C)(C)C)cc(C(C)(C)C)c2)CC1` [Compound 7, N-(3-(4-(3,5-di-tert-butylphenyl)piperazine-1-carbonyl)pyridin-4-yl)pivalamide], at Human Cav2.2 channels, the inhibition at 10 µM is 97%, the inhibition at 30 µM was found to be 96% and the pIC50 is 6.52. Moreover, in experiment [1], the pIC50 is 6.18. In addition, the negative-log IC50 (pIC50) in experiment [2] was 6.33.

`CC(C)(C)C(=O)Nc1ncccc1C(=O)N1CCN(c2cc(C(C)(C)C)cc(C(C)(C)C)c2)CC1` [Compound 8, N-(3-(4-(3,5-di-tert-butylphenyl)piperazine-1-carbonyl)pyridin-2-yl)pivalamide]: the inhibition at 10 µM on Human Cav2.2 channels was 94%. At Human Cav2.2 channels, the inhibition at 30 µM stood at 95%. Also, the negative-log IC50 (pIC50) at Human Cav2.2 channels is 6.19; in experiment [1], 6.15; in experiment [2] it was 6.26.

For the compound `Cc1cc(C(=O)N2CCN(c3cc(C(C)(C)C)cc(C(C)(C)C)c3)CC2)n(C(C)(C)C)n1` [Compound 10, (1-tert-butyl-3-methyl-1H-pyrazol-5-yl)(4-(3,5-di-tert-butylphenyl)piperazin-1-yl)methanone], the inhibition at 10 µM on Human Cav2.2 channels is 96%. The inhibition at 30 µM at Human Cav2.2 channels is 104%. In addition, the negative-log IC50 (pIC50) at Human Cav2.2 channels was 6.43; in experiment [1], 5.88; in experiment [2] it was 5.97.

Consider `CC(C)(C)c1cc(N2CCN(C(=O)COc3ccc(F)cc3)CC2)cc(C(C)(C)C)c1` [Compound 13, 1-(4-(3,5-di-tert-butylphenyl)piperazin-1-yl)-2-(4-fluorophenoxy)ethanone], for which, on Human Cav2.2 channels, the inhibition at 10 µM is 97%, the inhibition at 30 µM worked out at 97% and the pIC50 is 6.21. The negative-log IC50 (pIC50) in experiment [1] was 6.17. The negative logarithm of the IC50 (pIC50) in experiment [2] was 6.22.

For `CC1CCc2sc(C(=O)N3CCN(c4cc(C(C)(C)C)cc(C(C)(C)C)c4)CC3)cc2C1` (stereo not shown) [Compound 43, (4-(3,5-di-tert-butylphenyl)piperazin-1-yl)(5-methyl-4,5,6,7-tetrahydrobenzo[b]thiophen-2-yl)methanone], on Human Cav2.2 channels, the inhibition at 10 µM turned out to be 46% and the inhibition at 30 µM turned out to be 57%.

As for `CCCc1cc(C(=O)N2CCN(c3cc(C(C)(C)C)cc(C(C)(C)C)c3)CC2)sc1C` [Compound 44, (4-(3,5-di-tert-butylphenyl)piperazin-1-yl)(5-methyl-4-propylthiophen-2-yl)methanone], at Human Cav2.2 channels, the inhibition at 10 µM was 65% and the inhibition at 30 µM came to 81%.

In the case of `CC(C)(C)c1cc(N2CCN(C(=O)c3nsc(Cl)c3Cl)CC2)cc(C(C)(C)C)c1` [Compound 46, (4-(3,5-di-tert-butylphenyl)piperazin-1-yl)(4,5-dichloroisothiazol-3-yl)methanone], at Human Cav2.2 channels, the inhibition at 10 µM worked out at 79% and the inhibition at 30 µM was 89%.

`CC(C)(C)c1cc(N2CCN(C(=O)c3cc(-c4ccccc4)nc(-c4ccccc4)c3)CC2)cc(C(C)(C)C)c1` [Compound 50, (4-(3,5-di-tert-butylphenyl)piperazin-1-yl)(2,6-diphenylpyridin-4-yl)methanone]: on Human Cav2.2 channels, the inhibition at 10 µM came out at 20% and the inhibition at 30 µM turned out to be 26%.

Take `CCOc1ccc(C(=O)N2CCN(c3cc(C(C)(C)C)cc(C(C)(C)C)c3)CC2)o1` [Compound 51, (4-(3,5-di-tert-butylphenyl)piperazin-1-yl)(5-ethoxyfuran-2-yl)methanone]: on Human Cav2.2 channels, the inhibition at 10 µM was 98% and the inhibition at 30 µM was found to be 100%.

In the case of `CCc1cc(C(=O)N2CCN(c3cc(C(C)(C)C)cc(C(C)(C)C)c3)CC2)sc1C` [Compound 52, (4-(3,5-di-tert-butylphenyl)piperazin-1-yl)(4-ethyl-5-methylthiophen-2-yl)methanone], at Human Cav2.2 channels, the inhibition at 10 µM turned out to be 75% and the inhibition at 30 µM amounted to 88%.

Values taken from patent US20090270413A1, “DI-T-BUTYLPHENYL PIPERAZINES AS CALCIUM CHANNEL BLOCKERS” (priority 2008, published 2009).
